Activity calls are given as the source filed them. The rule behind the calls is not given here.
Key:
[1] = Inhibition of bovine brain tubulin polymerization preincubated for 15 mins followed by GTP addition and measured after 20 mins by spectrophotometric analysis; parameters: species or system Bos taurus
MCF7 = assay: Cytotoxicity against human MCF7 cells assessed as cell growth inhibition incubated for 96 hrs by SRB assay; format: functional
MDA-MB-231 [2] = assay: Cytotoxicity against human MDA-MB-231 cells assessed as cell growth inhibition incubated for 96 hrs by SRB assay; format: functional
Tubulin (Homo sapiens) [3] = biological target: T1, Tubulin (Homo sapiens) (UniProt P68371+Q9H4B7+P0DPH7+P68366+Q13509+Q71U36+P04350+Q3ZCM7+P07437+P68363+Q9BQE3+Q6PEY2+Q13885+Q9BVA1+Q9BUF5); assay: Inhibition of [3H]Colchicine binding to tubulin (unknown origin) at 5 uM incubated for 10 mins by scintillation counter relative to control; format: protein-complex assay
[4] = Aqueous solubility of compound; format: physicochemical; conditions: water
Mus musculus [5] = assay: Vascular disrupting activity in BALB/c mouse implanted with mouse orthotopic RENCA-luc assessed as reduction in bioluminescence imaging signal at 100 mg/kg administered as single dose and measured at 2.5 hrs by imaging analysis; format: functional, organism-based
Mus musculus [6] = assay: Vascular disrupting activity in BALB/c mouse implanted with mouse orthotopic RENCA-luc assessed as reduction in bioluminescence imaging signal at 150 mg/kg administered as single dose and measured at 2.5 hrs by imaging analysis relative to control; format: functional; parameters: scale not given: the % may be the effect or the level left
Mus musculus [7] = assay: Vascular disrupting activity in BALB/c mouse implanted with mouse orthotopic RENCA-luc assessed as hemorrhage at 150 mg/kg administered as single dose and measured after 2.5 hrs by H&E staining based analysis; format: functional, organism-based
Mus musculus [8] = assay: Vascular disrupting activity in BALB/c mouse implanted with mouse orthotopic RENCA-luc assessed as necrosis at 150 mg/kg administered as single dose and measured after 2.5 hrs by H&E staining based analysis; format: functional, organism-based
Tubulin (Homo sapiens) [9] = biological target: T1, Tubulin (Homo sapiens); assay: Inhibition of [3H]Colchicine binding to tubulin (unknown origin) at 0.5 uM incubated for 10 mins by scintillation counter relative to control; format: protein-complex assay
Tubulin (Homo sapiens) [10] = biological target: T1, Tubulin (Homo sapiens); assay: Induction of microtubule disruption in human MDA-MB-231 cells assessed as reduction in fluorescence at 100 nM measured at <1.5 mins by ViaFluor 488 live cell microtubule and Hoechst 33342 staining based fluorescence microscopic analysis
Tubulin (Homo sapiens) [11] = biological target: T1, Tubulin (Homo sapiens); assay: Induction of microtubule disruption in human MDA-MB-231 cells at 100 nM measured at 30 mins by ViaFluor 488 live cell microtubule and Hoechst 33342 staining based fluorescence microscopic analysis
MDA-MB-231 [12] = assay: Induction of G2/M phase cell cycle arrest in human MDA-MB-231 cells at 200 to 500 nM incubated for 48 hrs by PI staining based flow cytometric analysis; format: functional; conditions: dose 200-500 nM
MDA-MB-231 [13] = assay: Inhibition of cell migration in human MDA-MB-231 cells at 50 nM incubated for 4 hrs by scratch assay; format: functional, cell-based
MDA-MB-231 [14] = assay: Inhibition of cell migration in human MDA-MB-231 cells at 50 nM incubated for 6 hrs by scratch assay; format: functional, cell-based
MDA-MB-231 [15] = assay: Inhibition of cell proliferation in human MDA-MB-231 cells at 50 nM incubated for 6 hrs by scratch assay; format: functional, cell-based
MDA-MB-231 [16] = assay: Inhibition of cell migration in human MDA-MB-231 cells at 50 nM incubated for 72 hrs by scratch assay; format: functional, cell-based
MDA-MB-231 [17] = assay: Induction of morphological changes in human MDA-MB-231 cells at 100 nM measured within 2 hrs by scratch assay; format: functional, cell-based
MDA-MB-231 [18] = assay: Induction of morphological changes in human MDA-MB-231 cells assessed as cell rounding at 100 nM measured after 20 hrs by scratch assay relative to control; format: functional
MDA-MB-231 [19] = assay: Inhibition of cell migration in human MDA-MB-231 cells at 100 nM incubated for 20 hrs by scratch assay; format: functional, cell-based
MDA-MB-231 [20] = assay: Inhibition of cell proliferation in human MDA-MB-231 cells at 100 nM incubated for 20 hrs by scratch assay; format: functional, cell-based
MDA-MB-231 [21] = assay: Inhibition of cell migration in human MDA-MB-231 cells at 100 nM incubated for 30 hrs by scratch assay; format: functional, cell-based
MDA-MB-231 [22] = assay: Induction of morphological changes in human MDA-MB-231 cells at 200 nM measured within 1 hrs by scratch assay; format: functional, cell-based
MDA-MB-231 [23] = assay: Induction of morphological changes in human MDA-MB-231 cells assessed as cell rounding at 200 nM measured after 14 hrs by scratch assay; format: functional
MDA-MB-231 [24] = assay: Inhibition of cell migration in human MDA-MB-231 cells at 200 nM by scratch assay; format: functional, cell-based
MDA-MB-231 [25] = assay: Inhibition of cell proliferation in human MDA-MB-231 cells at 200 nM by scratch assay; format: functional, cell-based

Row | SMILES | IC50 [1] | GI50 (MCF7) | GI50 (MDA-MB-231 [2]) | inhibition (Tubulin (Homo sapiens) [3]) | other results
1 | COc1cc(C(=O)c2c[nH]c3cc(-c4cc5ccccc5o4)ccc23)cc(OC)c1OC | > 20 µM | 0.95 µM | 2.07 µM |  | 
2 | COc1ccc(-c2ccc3c(C(=O)c4cc(OC)c(OC)c(OC)c4)c[nH]c3c2)cc1O | > 20 µM | 1.5 µM | 0.828 µM |  | 
3 | CCc1ccc(-c2ccc3c(C(=O)c4cc(OC)c(OC)c(OC)c4)c[nH]c3c2)cc1 | > 20 µM | 1.8 µM | 2.22 µM |  | 
4 | COc1cc(C(=O)c2c[nH]c3cc(-c4ccccc4)ccc23)cc(OC)c1OC | 0.28 µM | 0.073 µM | 0.156 µM | 86% | 
5 | COc1ccc(-c2ccc3c(C(=O)c4cc(OC)c(OC)c(OC)c4)c[nH]c3c2)cc1 | 2.5 µM | 0.098 µM | 1.86 µM | 9.1% | 
6 | COc1cc(C(=O)c2c[nH]c3cc(-c4cccc(OP(=O)([O-])[O-])c4)ccc23)cc(OC)c1OC.[Na+].[Na+] | 9 µM | 4.2 µM | 0.694 µM |  | solubility [4]: ≤ 2400 µg/mL; Activity (Mus musculus [5]): Active; Activity (Mus musculus [6]): >90%; Activity (Mus musculus [7]): Active; Activity (Mus musculus [8]): Active
7 | COc1ccc(/C=C\c2cc(OC)c(OC)c(OC)c2)cc1O [COMBRETASTATIN A4] |  | 0.009 µM | 0.0035 µM |  | 
8 | COc1cc(C(=O)c2c[nH]c3cc(-c4cccc(N)c4)ccc23)cc(OC)c1OC | 0.42 µM | 0.065 µM | 0.025 µM | 91% | inhibition (Tubulin (Homo sapiens) [9]): 51%
9 | CCc1ccc(-c2ccc3c(C(=O)c4cc(OC)c(O)c(OC)c4)c[nH]c3c2)cc1 | > 20 µM | > 5 µM | > 5 µM |  | 
10 | COc1cccc(-c2ccc3c(C(=O)c4cc(OC)c(OC)c(OC)c4)c[nH]c3c2)c1 | 0.37 µM | 0.023 µM | 0.036 µM | 87% | 
11 | COc1cc(C(=O)c2c[nH]c3cc(-c4cccc(O)c4)ccc23)cc(OC)c1OC | 0.57 µM | 0.32 µM | 0.102 µM | 87% | Activity (Tubulin (Homo sapiens) [10]): Active; Activity (Tubulin (Homo sapiens) [11]): Active; Activity (MDA-MB-231 [12]): Active; inhibition (MDA-MB-231 [13]): Active; inhibition (MDA-MB-231 [14]): inactive; inhibition (MDA-MB-231 [15]): inactive; inhibition (MDA-MB-231 [16]): inactive; Activity (MDA-MB-231 [17]): Active; Activity (MDA-MB-231 [18]): <90%; inhibition (MDA-MB-231 [19]): Active; inhibition (MDA-MB-231 [20]): Active; inhibition (MDA-MB-231 [21]): Active; Activity (MDA-MB-231 [22]): Active; Activity (MDA-MB-231 [23]): >90%; inhibition (MDA-MB-231 [24]): Active; inhibition (MDA-MB-231 [25]): Active
12 | COc1cc(C(=O)c2c[nH]c3cc(-c4ccc(C(F)(F)F)cc4)ccc23)cc(OC)c1OC | > 20 µM | 1.4 µM | 4.06 µM |  | 
13 | COc1cc(C(=O)c2c[nH]c3cc(-c4ccc(C(C)=O)s4)ccc23)cc(OC)c1OC | > 20 µM | 0.073 µM | 3.23 µM |  | 
14 | COc1cc(C(=O)c2c[nH]c3cc(-c4cccc([N+](=O)[O-])c4)ccc23)cc(OC)c1OC | 0.65 µM | 0.028 µM | 0.11 µM | 41% | 
15 | COc1cc(C(=O)c2c[nH]c3cc(-c4ccc(C)cc4)ccc23)cc(OC)c1OC | 1.7 µM | 0.56 µM | 2.01 µM | 17% | 

— ChEMBL document CHEMBL5537121, “Synthesis and biological evaluation of structurally diverse 6-aryl-3-aroyl-indole analogues as inhibitors of tubulin polymerization” (Eur J Med Chem, 2024)
